The text below walks through data of the supplement of paper PMC12463676, “Small-molecule dissolution of stress granules by redox modulation benefits ALS models” (Nature Chemical Biology, 2025).

Compound in assay [1]: NC(=O)CCCCC1CCSS1 [lipoamide]
Nature of the assay: thermal stability z-score vs DMSO; higher = more thermally stabilized by treatment. Conditions: HeLa, lipoamide concentration 100 µM. The protocol: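 Cellular thermal proteome profiling in HeLa cells. Cells were treated with 100 µM lipoamide for 1 h, with or without 1 mM arsenate for a further 1 h, then heated to ten temperatures (37-66.3 °C), and soluble protein was quantified by TMT mass spectrometry relative to 0.1% DMSO controls. The thermal stability score (sum of log2 fold changes minus the abundance score) was transformed to a z-score; mean of n = 3 experiments.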

Compound in assay [2]: O=[As]([O-])(O)O.[K+] [potassium arsenate]
Described as above. To be noted: HeLa; arsenate concentration 1 mM. Here is the method: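 Cellular thermal proteome profiling in HeLa cells treated with 1 mM arsenate for 1 h (DMSO pretreatment), heated to ten temperatures (37-66.3 °C). Soluble protein was quantified by TMT mass spectrometry relative to DMSO controls; the thermal stability score was transformed to a z-score; mean of n = 3 experiments.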

[3] abbreviates: arsenate co-treatment: 1 mM arsenate 1 h.
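Also: each temperature applied for 3 min, abundance score taken as mean log2 fold change at the two lowest temperatures, z-score obtained by mean subtraction and division by SD.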

UniProt Q96EP5, sequence (Q96EP5 whole entry): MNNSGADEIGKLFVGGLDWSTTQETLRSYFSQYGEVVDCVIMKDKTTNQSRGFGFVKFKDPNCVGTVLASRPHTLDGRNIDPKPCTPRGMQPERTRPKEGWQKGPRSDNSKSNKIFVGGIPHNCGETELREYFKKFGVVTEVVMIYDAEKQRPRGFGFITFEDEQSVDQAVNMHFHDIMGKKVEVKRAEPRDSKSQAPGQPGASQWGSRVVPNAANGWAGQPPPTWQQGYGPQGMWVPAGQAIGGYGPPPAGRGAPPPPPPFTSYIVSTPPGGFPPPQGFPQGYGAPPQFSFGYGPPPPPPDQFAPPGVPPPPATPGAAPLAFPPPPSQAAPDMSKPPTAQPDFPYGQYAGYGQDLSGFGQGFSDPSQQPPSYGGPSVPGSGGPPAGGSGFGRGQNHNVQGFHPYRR
UniProt P10606, sequence (P10606 whole entry): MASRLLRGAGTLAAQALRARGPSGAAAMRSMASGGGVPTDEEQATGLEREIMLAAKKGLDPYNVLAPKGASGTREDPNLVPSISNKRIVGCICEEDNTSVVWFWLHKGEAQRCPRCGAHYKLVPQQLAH
UniProt Q8IV48, sequence (Q8IV48 whole entry): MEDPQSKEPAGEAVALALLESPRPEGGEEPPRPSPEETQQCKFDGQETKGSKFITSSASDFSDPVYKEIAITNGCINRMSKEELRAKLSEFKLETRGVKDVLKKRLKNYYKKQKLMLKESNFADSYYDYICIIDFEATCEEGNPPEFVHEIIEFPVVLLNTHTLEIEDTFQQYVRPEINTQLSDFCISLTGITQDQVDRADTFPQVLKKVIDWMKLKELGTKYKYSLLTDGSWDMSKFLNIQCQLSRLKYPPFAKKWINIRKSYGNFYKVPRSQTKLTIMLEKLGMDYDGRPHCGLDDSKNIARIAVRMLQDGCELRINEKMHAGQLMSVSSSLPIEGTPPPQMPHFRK
UniProt Q8WXA3, sequence (Q8WXA3 whole entry): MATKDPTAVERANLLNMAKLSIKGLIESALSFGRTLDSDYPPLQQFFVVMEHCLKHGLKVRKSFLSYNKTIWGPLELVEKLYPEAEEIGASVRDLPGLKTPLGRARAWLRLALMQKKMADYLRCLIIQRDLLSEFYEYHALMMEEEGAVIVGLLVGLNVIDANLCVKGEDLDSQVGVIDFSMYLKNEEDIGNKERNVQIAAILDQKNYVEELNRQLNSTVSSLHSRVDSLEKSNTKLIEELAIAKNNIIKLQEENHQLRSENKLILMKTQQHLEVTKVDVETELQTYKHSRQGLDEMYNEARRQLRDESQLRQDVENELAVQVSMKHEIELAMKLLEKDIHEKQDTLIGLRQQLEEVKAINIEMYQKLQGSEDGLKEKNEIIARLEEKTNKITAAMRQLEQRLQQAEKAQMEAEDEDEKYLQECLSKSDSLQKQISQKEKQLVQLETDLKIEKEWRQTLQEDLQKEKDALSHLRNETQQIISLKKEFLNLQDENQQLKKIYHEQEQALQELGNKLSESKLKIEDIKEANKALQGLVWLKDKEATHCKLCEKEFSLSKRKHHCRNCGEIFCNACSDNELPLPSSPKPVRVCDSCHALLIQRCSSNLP
UniProt P51452, sequence (P51452 whole entry, looked up): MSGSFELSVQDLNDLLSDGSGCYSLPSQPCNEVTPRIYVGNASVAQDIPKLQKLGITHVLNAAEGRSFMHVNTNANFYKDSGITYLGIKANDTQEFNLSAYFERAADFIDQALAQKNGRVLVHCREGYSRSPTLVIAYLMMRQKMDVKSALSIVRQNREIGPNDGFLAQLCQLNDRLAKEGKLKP
UniProt Q04206, sequence (Q04206 whole entry): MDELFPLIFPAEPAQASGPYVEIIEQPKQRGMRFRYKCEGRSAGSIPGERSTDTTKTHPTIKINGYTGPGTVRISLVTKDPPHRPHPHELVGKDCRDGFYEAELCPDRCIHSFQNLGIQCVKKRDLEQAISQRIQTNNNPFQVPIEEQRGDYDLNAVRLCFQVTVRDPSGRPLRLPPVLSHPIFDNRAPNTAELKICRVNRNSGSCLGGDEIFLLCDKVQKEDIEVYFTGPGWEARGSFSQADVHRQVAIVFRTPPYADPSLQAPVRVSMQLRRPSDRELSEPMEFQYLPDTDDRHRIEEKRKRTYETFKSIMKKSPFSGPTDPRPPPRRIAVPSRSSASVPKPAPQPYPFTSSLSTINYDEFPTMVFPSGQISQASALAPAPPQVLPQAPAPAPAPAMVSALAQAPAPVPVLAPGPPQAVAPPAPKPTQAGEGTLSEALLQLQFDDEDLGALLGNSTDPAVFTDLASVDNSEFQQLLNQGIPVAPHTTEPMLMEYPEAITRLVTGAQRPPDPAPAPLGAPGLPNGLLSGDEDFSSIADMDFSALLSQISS
UniProt P07203, sequence (P07203 whole entry): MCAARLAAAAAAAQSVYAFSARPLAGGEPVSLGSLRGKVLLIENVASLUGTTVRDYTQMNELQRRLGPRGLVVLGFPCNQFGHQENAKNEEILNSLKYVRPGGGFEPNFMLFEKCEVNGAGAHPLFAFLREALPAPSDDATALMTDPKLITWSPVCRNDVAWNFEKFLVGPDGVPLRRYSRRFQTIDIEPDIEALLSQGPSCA
UniProt O75915, sequence (O75915 whole entry): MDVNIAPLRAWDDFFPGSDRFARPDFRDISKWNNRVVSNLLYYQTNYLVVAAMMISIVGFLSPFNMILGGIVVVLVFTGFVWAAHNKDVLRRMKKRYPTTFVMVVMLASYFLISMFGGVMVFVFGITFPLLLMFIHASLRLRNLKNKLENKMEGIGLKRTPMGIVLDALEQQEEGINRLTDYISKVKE
UniProt Q96DI7, sequence (Q96DI7 whole entry): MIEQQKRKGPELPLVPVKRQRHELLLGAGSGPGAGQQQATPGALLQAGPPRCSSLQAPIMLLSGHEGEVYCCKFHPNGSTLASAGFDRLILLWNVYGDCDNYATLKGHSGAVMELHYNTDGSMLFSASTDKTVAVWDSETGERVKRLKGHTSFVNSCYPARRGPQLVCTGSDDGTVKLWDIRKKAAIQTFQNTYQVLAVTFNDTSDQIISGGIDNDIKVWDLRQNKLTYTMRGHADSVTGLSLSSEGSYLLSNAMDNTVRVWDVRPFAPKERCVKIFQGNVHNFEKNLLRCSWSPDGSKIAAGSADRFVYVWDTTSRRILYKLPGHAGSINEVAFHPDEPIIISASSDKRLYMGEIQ
UniProt Q5T7V8, sequence (Q5T7V8 whole entry): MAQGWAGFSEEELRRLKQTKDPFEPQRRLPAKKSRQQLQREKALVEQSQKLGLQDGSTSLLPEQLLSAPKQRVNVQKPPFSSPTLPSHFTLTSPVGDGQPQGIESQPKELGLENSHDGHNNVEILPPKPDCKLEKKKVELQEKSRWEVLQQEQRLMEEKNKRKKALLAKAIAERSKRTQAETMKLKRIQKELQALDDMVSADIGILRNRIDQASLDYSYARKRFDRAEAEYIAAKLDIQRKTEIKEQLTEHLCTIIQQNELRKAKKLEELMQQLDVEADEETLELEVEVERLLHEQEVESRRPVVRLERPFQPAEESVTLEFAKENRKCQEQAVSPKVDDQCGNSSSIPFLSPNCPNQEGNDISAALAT
UniProt O75608, sequence (O75608 whole entry): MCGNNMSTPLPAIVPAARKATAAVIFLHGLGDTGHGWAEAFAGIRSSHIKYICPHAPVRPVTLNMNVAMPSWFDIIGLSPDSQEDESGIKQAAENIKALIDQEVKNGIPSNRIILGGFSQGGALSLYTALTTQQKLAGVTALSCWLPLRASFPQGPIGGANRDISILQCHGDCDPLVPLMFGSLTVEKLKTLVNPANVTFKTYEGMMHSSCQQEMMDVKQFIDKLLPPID
UniProt Q9NRF9, sequence (Q9NRF9 whole entry): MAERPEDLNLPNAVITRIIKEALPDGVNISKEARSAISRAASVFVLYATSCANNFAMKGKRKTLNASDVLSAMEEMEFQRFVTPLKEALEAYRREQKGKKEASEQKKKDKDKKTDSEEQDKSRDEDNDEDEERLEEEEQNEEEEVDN
UniProt Q96GQ7, sequence (Q96GQ7 whole entry): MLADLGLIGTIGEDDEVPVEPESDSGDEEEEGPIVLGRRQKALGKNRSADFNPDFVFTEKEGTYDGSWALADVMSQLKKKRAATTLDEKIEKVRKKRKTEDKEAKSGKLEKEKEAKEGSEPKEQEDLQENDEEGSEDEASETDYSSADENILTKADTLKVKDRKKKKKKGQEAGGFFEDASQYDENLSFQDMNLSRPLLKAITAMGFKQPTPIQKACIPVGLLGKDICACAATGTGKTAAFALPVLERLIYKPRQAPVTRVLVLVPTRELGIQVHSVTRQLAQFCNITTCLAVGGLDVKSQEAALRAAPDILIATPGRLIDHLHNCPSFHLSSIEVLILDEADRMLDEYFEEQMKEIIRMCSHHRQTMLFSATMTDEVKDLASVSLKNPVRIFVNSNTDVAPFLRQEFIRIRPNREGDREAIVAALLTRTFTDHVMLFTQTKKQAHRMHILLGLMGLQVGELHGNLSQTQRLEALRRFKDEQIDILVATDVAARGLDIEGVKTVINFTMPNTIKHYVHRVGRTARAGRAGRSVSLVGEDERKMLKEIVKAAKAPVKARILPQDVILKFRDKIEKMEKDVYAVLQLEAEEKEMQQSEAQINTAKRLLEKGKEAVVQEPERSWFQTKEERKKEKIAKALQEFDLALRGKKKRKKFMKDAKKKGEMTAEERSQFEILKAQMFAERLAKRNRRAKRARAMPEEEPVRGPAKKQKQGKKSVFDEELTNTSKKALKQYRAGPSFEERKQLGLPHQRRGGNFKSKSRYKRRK
UniProt Q15257, sequence (Q15257 whole entry): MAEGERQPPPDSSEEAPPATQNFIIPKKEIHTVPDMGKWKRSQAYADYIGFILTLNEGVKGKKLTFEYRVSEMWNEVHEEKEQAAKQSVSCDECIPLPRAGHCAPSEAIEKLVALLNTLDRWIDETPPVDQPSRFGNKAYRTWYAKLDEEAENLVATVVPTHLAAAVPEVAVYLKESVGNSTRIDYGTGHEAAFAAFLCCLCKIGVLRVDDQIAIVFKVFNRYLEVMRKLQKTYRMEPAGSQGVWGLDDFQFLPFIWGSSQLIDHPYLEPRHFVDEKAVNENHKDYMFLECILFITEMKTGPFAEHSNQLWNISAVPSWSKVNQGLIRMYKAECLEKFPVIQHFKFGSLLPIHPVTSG

Take DDX27 (UniProt Q96GQ7): the thermal stability z-score in assay [1] (setting [3]) was 0.47; in assay [1] (arsenate co-treatment: none) it was 0.52; in assay [2], -0.231.
For the target AKR1A1 (UniProt P14550), the thermal stability z-score is 0.441 in assay [1] (setting [3]), -0.302 in assay [1] (arsenate co-treatment: none) and -0.0811 in assay [2].
On the same counts, the results for C8ORF82 (UniProt Q6P1X6) are 0.229, -0.151 and -0.319.
Regarding ZFYVE27 (UniProt Q5T4F4), the values for the thermal stability z-score in assay [1] (setting [3]), in assay [1] (arsenate co-treatment: none) and in assay [2] were -0.0642, -0.19 and 0.0943, respectively.
On the same counts, the results for TANC2 (UniProt Q9HCD6) are -0.0889, -0.116 and -0.0159.
On to GMPPA (UniProt Q96IJ6), for which the thermal stability z-score in assay [1] (setting [3]) is -0.54; in assay [1] (arsenate co-treatment: none), -1.04; in assay [2] it was -0.0973.
Regarding TPMT (UniProt P51580), the thermal stability z-score in assay [1] (setting [3]) was 0.308; in assay [1] (arsenate co-treatment: none), 0.31; in assay [2] it was -0.162.
On to DAZAP1 (UniProt Q96EP5), for which the thermal stability z-score in assay [1] (setting [3]) was determined as 1.15; in assay [1] (arsenate co-treatment: none), 1.07; in assay [2] it was 0.243.
Take CD2BP2 (UniProt O95400): the results for the thermal stability z-score in assay [1] (setting [3]), in assay [1] (arsenate co-treatment: none) and in assay [2] were 0.994, 0.894 and 0.94, respectively.
Turning to PHACTR4 (UniProt Q8IZ21), the thermal stability z-score in assay [1] (setting [3]) is 0.747; in assay [1] (arsenate co-treatment: none) it was 0.22; in assay [2] it was -0.282.
Take LYPLA1 (UniProt O75608): the thermal stability z-score in assay [1] (setting [3]) was 0.624; in assay [1] (arsenate co-treatment: none), -0.159; in assay [2], -0.862.
On the same counts, the results for CHCHD3 (UniProt Q9NX63) are 0.334, 0.581 and 0.417.
Take LMAN2L (UniProt Q9H0V9): the thermal stability z-score was -2.57 in assay [1] (setting [3]), -1.5 in assay [1] (arsenate co-treatment: none) and 0.373 in assay [2].
For the target SAP130 (UniProt Q9H0E3), the thermal stability z-score is -0.208 in assay [1] (setting [3]), -0.267 in assay [1] (arsenate co-treatment: none) and -0.246 in assay [2].
As for ATR (UniProt Q13535), the thermal stability z-score in assay [1] (setting [3]) was -0.0437; in assay [1] (arsenate co-treatment: none), 0.124; in assay [2], -0.568.
Turning to POLE3 (UniProt Q9NRF9), the figures for the thermal stability z-score in assay [1] (setting [3]), in assay [1] (arsenate co-treatment: none) and in assay [2] were -0.405, -0.285 and 0.375, respectively.
As for PLOD1 (UniProt Q02809), the values for the thermal stability z-score in assay [1] (setting [3]), in assay [1] (arsenate co-treatment: none) and in assay [2] were -4.26, -3.77 and 1.2, respectively.
On the same counts, the results for COX5B (UniProt P10606) are 1.26, 1.21 and -0.926.
On to TMF1 (UniProt P82094), for which the results for the thermal stability z-score in assay [1] (setting [3]), in assay [1] (arsenate co-treatment: none) and in assay [2] were -0.551, -0.475 and -0.126, respectively.
As for GORAB (UniProt Q5T7V8), the figures for the thermal stability z-score in assay [1] (setting [3]), in assay [1] (arsenate co-treatment: none) and in assay [2] were 0.521, 0.173 and 0.527, respectively.
As to PRKRIP1 (UniProt Q9H875), the values for the thermal stability z-score in assay [1] (setting [3]), in assay [1] (arsenate co-treatment: none) and in assay [2] were 0.524, 0.599 and 0.247, respectively.
As to ASCC1 (UniProt Q8N9N2), the thermal stability z-score in assay [1] (setting [3]) is -1.01; in assay [1] (arsenate co-treatment: none) it was -0.215; in assay [2] it was -0.708.
Consider PHLDB1 (UniProt Q86UU1), for which the thermal stability z-score was -0.559 in assay [1] (setting [3]), 0.362 in assay [1] (arsenate co-treatment: none) and 0.2 in assay [2].
Consider VPS51 (UniProt Q9UID3), for which the figures for the thermal stability z-score in assay [1] (setting [3]), in assay [1] (arsenate co-treatment: none) and in assay [2] were -0.0785, 0.169 and -0.285, respectively.
For the target IFT74 (UniProt Q96LB3), the results for the thermal stability z-score in assay [1] (setting [3]), in assay [1] (arsenate co-treatment: none) and in assay [2] were -0.121, -0.049 and -0.115, respectively.
As to ERI1 (UniProt Q8IV48), the thermal stability z-score in assay [1] (setting [3]) is 0.0943; in assay [1] (arsenate co-treatment: none), 0.343; in assay [2], -1.14.
For RPS14 (UniProt P62263), the thermal stability z-score is 0.641 in assay [1] (setting [3]), 0.21 in assay [1] (arsenate co-treatment: none) and -0.926 in assay [2].
For PPP2R4 (UniProt Q15257), the thermal stability z-score in assay [1] (setting [3]) is 0.108; in assay [1] (arsenate co-treatment: none), 0.233; in assay [2], -0.0643.
As to DUSP3 (UniProt P51452), the thermal stability z-score in assay [1] (setting [3]) is 0.504; in assay [1] (arsenate co-treatment: none), 0.265; in assay [2], -0.191.
Take SNRNP40 (UniProt Q96DI7): the results for the thermal stability z-score in assay [1] (setting [3]), in assay [1] (arsenate co-treatment: none) and in assay [2] were 0.383, -0.0333 and -0.213, respectively.
Consider PAK4 (UniProt O96013), for which the thermal stability z-score was -0.224 in assay [1] (setting [3]), -0.347 in assay [1] (arsenate co-treatment: none) and -0.347 in assay [2].
As to ARL6IP5 (UniProt O75915), the thermal stability z-score in assay [1] (setting [3]) was -0.0796; in assay [1] (arsenate co-treatment: none), 0.285; in assay [2] it was -0.256.
Take KBTBD6 (UniProt Q86V97): the thermal stability z-score was -0.502 in assay [1] (setting [3]), 0.182 in assay [1] (arsenate co-treatment: none) and -1.11 in assay [2].
RELA (UniProt Q04206): the results for the thermal stability z-score in assay [1] (setting [3]), in assay [1] (arsenate co-treatment: none) and in assay [2] were 0.384, 0.867 and 0.374, respectively.
As for EPPK1 (UniProt P58107), the thermal stability z-score was -0.00734 in assay [1] (setting [3]), 0.0541 in assay [1] (arsenate co-treatment: none) and -0.359 in assay [2].
On to GPX1 (UniProt P07203), for which the thermal stability z-score was 0.0953 in assay [1] (setting [3]), 0.0517 in assay [1] (arsenate co-treatment: none) and -0.087 in assay [2].
Consider SEPHS1 (UniProt P49903), for which the thermal stability z-score in assay [1] (setting [3]) was 0.189; in assay [1] (arsenate co-treatment: none), 0.065; in assay [2] it was 0.00514.
Take RUFY2 (UniProt Q8WXA3): the thermal stability z-score in assay [1] (setting [3]) is -0.19; in assay [1] (arsenate co-treatment: none), -0.0853; in assay [2] it was -0.0152.
For RELB (UniProt Q01201), the results for the thermal stability z-score in assay [1] (setting [3]), in assay [1] (arsenate co-treatment: none) and in assay [2] were -0.128, -0.07 and 0.048, respectively.
As for IAH1 (UniProt Q2TAA2), the thermal stability z-score in assay [1] (setting [3]) is 0.672; in assay [1] (arsenate co-treatment: none), 0.79; in assay [2], -0.173.
RPS24 (UniProt P62847): the values for the thermal stability z-score in assay [1] (setting [3]), in assay [1] (arsenate co-treatment: none) and in assay [2] were 0.103, -0.101 and -0.971, respectively.
As to C8ORF33 (UniProt Q9H7E9), the thermal stability z-score in assay [1] (setting [3]) is 0.833; in assay [1] (arsenate co-treatment: none), -0.384; in assay [2], 1.19.
